# Laboratory results: paper PMC11879040, “Advancing systemic toxicity risk assessment: Evaluation of a NAM-based toolbox approach” (Toxicological Sciences, 2024)
# Like-named read-outs stand apart in the source and are kept apart here.
# How the values were obtained:
# [1] = molecular target: T1, Estrogen receptor, ER1 (h) (Homo sapiens, UniProt P03372); experiment: IPP ER1 coactivator recruitment (agonist); format: biochemical; conditions: 10 uM, estriol
# T1 construct: purchased Eurofins Cerep (SafetyScreen44-based IPP panel)
# T1 sequence (P03372 1-595): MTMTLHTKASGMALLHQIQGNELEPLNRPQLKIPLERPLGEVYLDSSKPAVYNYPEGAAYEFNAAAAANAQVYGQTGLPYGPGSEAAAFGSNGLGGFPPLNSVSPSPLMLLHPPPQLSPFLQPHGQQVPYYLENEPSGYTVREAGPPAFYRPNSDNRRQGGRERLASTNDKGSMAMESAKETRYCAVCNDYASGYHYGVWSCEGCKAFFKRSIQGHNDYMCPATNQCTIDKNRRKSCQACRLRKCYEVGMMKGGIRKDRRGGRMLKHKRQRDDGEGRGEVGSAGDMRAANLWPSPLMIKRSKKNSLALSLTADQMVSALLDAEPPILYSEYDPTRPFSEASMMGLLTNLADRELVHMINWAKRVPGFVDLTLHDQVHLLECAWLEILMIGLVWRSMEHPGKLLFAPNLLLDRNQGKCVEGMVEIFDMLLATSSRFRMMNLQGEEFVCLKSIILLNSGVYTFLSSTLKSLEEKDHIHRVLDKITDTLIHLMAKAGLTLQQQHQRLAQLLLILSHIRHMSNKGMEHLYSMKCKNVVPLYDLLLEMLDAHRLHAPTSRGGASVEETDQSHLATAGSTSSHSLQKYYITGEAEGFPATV
# [2] = tested on: Gamma-aminobutyric acid receptor subunit alpha-1 BZD site, GABRA1A (r); format: binding, rat; conditions: control diazepam
# [3] = tested on: Glutamate receptor ionotropic NMDA 1 non-selective, GRIN1 (r); conditions: IPP screening at 10 uM; control CGS 19755
# [4] = cited from earlier work
# [5] = molecular target: T2, Pregnane X receptor PXR, NR1I2 (h) (Homo sapiens, UniProt O75469)
# T2 sequence (O75469 1-434): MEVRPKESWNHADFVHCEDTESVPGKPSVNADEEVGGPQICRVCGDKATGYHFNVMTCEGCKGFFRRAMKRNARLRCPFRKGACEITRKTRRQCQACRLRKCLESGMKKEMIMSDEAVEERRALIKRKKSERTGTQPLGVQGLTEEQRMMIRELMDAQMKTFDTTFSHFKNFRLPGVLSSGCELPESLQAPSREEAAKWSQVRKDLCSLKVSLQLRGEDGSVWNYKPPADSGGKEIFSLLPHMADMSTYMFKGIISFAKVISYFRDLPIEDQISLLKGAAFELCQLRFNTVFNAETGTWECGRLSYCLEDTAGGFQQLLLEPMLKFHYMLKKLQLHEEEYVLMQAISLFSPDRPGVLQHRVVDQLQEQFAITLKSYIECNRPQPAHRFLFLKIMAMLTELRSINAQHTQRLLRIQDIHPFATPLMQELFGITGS
# [6] = Assignment of risk classifications to benchmark chemical-exposure scenarios; conditions: from table S1
# [7] = hepatic intrinsic clearance (Clint); conditions: PBK level L3; optimised against clinical data; per chemical [8],[9],[14],[16],[22],[24],[25],[29],[30],[32]
# [8] = tested on: 63 targets with known safety liabilities; experiment: In vitro pharmacological profiling (IPP) panel, screening at 10 or 100 µM and dose response, minimum IC50/AC50; format: biochemical; conditions: lowest AC50 across IPP panel (systemic targets); cell_type -; read-out: ipp_lowest_ac50_systemic PoD
# [9] = human
# [10] = cited from earlier work; remark: listed apart in the source
# [11] = PBK model plasma Cmax estimate (Gastroplus 9.8; levels L1, L2, L3); parameters: species or system human; conditions: therapeutic uses
# HepG2 cells [12] = experiment: High-throughput transcriptomics (HTTr, TempO-Seq), HepG2, 24 h; format: cell-based, human
# Procedure: (§1) HepG2, HepaRG, and MCF7 cells were treated with each compound for 24 h across a dose range of 7 concentrations and lysed using TempO-Seq lysis buffer (BioSpyder Technologies, proprietary kit, see [Middleton et al. 2022] for method details). Sequencing was performed using TempO-Seq (BioClavis) version 2 of the human whole transcriptome panel and analyzed as described previously in Middleton et al.
# [13] = molecular target: T1, Estrogen receptor, ER1 (h); experiment: IPP ER1 coactivator recruitment (antagonist); format: biochemical; conditions: 10 uM, estriol
# MCF7 cells = experiment: High-throughput transcriptomics (HTTr, TempO-Seq), MCF7, 24 h; format: cell-based, human; conditions: MCF-7
# Procedure: as §1
# HepaRG cells = experiment: High-throughput transcriptomics (HTTr, TempO-Seq), HepaRG, 24 h; format: cell-based, human; conditions: HepaRG
# Procedure: as §1
# Tubulin (r) = experiment: IPP Tubulin binding; parameters: species or system rat; conditions: ligand/control Colchicine
# rat = conditions: rat; 28 days; changes in thyroid hormone levels; ref ToxRefDB/Paul-Friedman et al. (2020)/regulatory opinions; cited from earlier work
# [14] = at the given pH, single value or median, cited from earlier work
# [15] = molecular target: T3, Adenosine receptor A2a, ADORA2A (h) (Homo sapiens, UniProt P29274); experiment: IPP ADORA2A binding (agonist radioligand); conditions: control NECA
# T3 construct: purchased Eurofins Cerep (SafetyScreen44-based IPP panel)
# T3 sequence (P29274 whole entry): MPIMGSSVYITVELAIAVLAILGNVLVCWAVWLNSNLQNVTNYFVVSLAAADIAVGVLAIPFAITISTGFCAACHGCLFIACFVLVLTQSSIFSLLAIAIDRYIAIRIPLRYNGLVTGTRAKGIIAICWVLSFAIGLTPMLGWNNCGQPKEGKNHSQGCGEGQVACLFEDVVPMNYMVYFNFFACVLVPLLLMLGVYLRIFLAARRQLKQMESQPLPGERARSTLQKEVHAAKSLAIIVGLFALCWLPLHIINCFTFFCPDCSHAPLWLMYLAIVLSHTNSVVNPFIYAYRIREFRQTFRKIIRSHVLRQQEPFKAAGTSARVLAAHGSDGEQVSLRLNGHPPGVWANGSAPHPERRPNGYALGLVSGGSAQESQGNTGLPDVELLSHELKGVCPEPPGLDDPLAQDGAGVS
# [16] = tested on: Thyroid hormone receptor alpha, THRA (h); experiment: IPP THRA coactivator recruitment (agonist); format: biochemical, human; conditions: agonist, T3
# HepG2 cells [17] = experiment: Cell stress panel (CSP), 24 h, 8 concentrations, BIFROST global PoD; format: cell-based; conditions: HepG2; cell stress panel PoD
# Procedure: Compounds were tested using the previously developed cell stress panel ([Hatherell et al. 2020]) and the expanded biomarker panel outlined in Middleton et al. HepG2 cells were treated with all compounds for 24 h across 8 concentrations prior to biomarker analysis. The same plate layout and number of replicates (3 biological and 2 technical) were used as previously for each assay within the panel.
# [18] = tested on: Potassium Voltage-Gated Channel Kv non-selective, KCNQ1 (r); experiment: IPP KCNQ1 binding (antagonist radioligand); parameters: species or system rat; conditions: IPP screening at 100 uM; control α-dendrotoxin
# [19] = molecular target: Dopamine receptor D2, DRD2 (h) (Homo sapiens, UniProt P14416); experiment: biochemical
# Chain of Dopamine receptor D2, DRD2 (h) (P14416 whole entry): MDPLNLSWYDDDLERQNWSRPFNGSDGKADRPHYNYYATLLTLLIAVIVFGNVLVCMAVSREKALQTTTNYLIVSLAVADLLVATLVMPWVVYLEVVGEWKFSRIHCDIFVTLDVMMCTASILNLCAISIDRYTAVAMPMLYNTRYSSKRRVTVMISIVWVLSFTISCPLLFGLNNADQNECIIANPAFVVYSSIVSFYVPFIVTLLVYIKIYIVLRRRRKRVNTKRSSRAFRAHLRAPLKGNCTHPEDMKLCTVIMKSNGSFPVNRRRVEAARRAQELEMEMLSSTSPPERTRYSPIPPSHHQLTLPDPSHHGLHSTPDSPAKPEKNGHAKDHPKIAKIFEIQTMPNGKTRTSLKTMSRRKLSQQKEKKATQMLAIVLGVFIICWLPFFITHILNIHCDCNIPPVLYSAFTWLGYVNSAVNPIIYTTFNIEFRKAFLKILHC
# [20] = tested on: Sodium channel protein type 5 subunit alpha (site 2), SCN5A (r); format: binding, rat
# [21] = molecular target: Voltage-dependent L-type Ca2+ channel (dihydropyridine site), CACNA1C (r) (Rattus norvegicus, UniProt P22002); format: binding
# Chain of Voltage-dependent L-type Ca2+ channel (dihydropyridine site), CACNA1C (r) (P22002 whole entry): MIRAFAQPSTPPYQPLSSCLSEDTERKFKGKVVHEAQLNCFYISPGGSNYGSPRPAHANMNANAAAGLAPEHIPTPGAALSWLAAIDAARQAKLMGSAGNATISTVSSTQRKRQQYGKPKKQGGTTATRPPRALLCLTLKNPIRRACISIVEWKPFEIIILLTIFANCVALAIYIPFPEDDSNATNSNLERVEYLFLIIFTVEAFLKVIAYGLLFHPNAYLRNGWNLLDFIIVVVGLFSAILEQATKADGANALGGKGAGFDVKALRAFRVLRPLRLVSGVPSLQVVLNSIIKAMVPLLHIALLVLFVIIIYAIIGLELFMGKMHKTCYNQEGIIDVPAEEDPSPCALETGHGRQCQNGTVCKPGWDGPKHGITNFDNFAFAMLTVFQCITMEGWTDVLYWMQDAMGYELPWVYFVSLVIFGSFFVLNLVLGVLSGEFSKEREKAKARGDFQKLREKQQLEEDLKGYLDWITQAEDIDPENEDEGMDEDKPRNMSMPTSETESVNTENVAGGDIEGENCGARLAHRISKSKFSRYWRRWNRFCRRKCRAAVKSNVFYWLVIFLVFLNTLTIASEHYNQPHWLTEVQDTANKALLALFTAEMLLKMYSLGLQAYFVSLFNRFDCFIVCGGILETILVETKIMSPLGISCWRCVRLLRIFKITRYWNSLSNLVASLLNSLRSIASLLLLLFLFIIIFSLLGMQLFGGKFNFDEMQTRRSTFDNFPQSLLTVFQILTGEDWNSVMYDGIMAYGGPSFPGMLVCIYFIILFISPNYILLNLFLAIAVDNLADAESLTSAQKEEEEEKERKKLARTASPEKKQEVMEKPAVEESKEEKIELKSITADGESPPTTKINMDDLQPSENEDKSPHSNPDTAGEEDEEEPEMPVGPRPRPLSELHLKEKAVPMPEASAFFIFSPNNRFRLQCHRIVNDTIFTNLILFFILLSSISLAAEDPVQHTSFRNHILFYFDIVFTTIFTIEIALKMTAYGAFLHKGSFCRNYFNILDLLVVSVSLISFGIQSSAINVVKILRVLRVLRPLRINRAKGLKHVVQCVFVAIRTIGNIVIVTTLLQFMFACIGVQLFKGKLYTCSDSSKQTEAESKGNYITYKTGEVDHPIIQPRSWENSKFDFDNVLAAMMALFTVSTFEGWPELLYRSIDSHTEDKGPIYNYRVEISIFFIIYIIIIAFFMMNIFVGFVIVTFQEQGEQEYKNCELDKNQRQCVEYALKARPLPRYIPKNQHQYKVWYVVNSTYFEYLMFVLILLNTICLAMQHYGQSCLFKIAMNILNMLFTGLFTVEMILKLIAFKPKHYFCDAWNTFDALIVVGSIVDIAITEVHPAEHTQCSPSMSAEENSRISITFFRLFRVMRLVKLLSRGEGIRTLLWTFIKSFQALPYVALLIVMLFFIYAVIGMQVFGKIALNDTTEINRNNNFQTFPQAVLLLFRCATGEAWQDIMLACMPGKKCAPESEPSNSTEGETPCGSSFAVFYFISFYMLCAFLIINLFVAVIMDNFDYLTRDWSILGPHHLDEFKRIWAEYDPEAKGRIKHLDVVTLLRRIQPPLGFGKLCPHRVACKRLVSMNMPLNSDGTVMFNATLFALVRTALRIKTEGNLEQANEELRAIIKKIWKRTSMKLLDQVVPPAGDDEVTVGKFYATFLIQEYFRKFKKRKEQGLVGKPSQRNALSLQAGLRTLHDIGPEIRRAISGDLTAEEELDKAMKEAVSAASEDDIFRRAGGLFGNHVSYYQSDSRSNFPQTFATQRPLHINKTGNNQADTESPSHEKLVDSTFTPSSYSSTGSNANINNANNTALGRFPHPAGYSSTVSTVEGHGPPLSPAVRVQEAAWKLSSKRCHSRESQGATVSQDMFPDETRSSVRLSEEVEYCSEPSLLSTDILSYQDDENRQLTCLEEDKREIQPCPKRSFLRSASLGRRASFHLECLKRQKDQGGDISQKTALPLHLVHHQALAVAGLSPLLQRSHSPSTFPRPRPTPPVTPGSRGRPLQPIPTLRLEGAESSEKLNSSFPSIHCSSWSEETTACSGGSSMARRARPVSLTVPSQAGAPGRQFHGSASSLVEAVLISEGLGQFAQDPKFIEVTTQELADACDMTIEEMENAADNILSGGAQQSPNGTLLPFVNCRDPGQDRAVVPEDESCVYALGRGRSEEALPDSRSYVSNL
# [22] = PBK input, levels L2/L3; ref [5]; cited from earlier work
# [23] = unbound fraction in plasma (fup); conditions: PBK input, levels L2/L3; median of [2] internal data (unpublished) and [10]
# [24] = PBK level L2, taken or scaled from references (median where several), ref [6],[7],[10],[19]
# [25] = Oral 200 mg solution, fasted, 23 healthy male, validation, ref Huang et al. 1986
# [26] = Oral 200 mg suspension, fasted, 23 healthy male, validation, ref Huang et al. 1986
# [27] = Oral 200 mg tablet, fasted, 23 healthy male, validation, ref Huang et al. 1986
# [28] = Oral 200 mg tablet, fed, 6 healthy male, calibration, ref Daneshmend et al. 1981
# [29] = Oral 200 mg tablet, fed, 8 healthy male, validation, ref Daneshmend et al. 1983
# [30] = IV 10 mg infusion (8.9 mg), 6 healthy, calibration, ref Ross-Lee et al. 1981
# [31] = IV 20 mg infusion (15.4 mg base), 8 healthy, validation, ref Magueur et al. 1991
# [32] = Oral 10 mg tablet (8.9 mg), fasted, 6 healthy, calibration, ref Ross-Lee et al. 1981
# [33] = Oral 10 mg tablet (8.9 mg), fasted, 8 healthy male, validation, ref Bateman et al. 1980
# [34] = Oral 20 mg tablet (17 mg base), fasted, 8 healthy, validation, ref Magueur et al. 1991
# [35] = Oral 20 mg tablet (17.8 mg), fasted, 8 healthy male, validation, ref Bateman et al. 1980
smiles,measurement,setting,value
"CC(=O)N1CCN(c2ccc(OC[C@H]3CO[C@](Cn4ccnc4)(c4ccc(Cl)cc4Cl)O3)cc2)CC1 [Ketoconazole, 1-{4-[4-({(2R,4S)-2-(2,4-Dichlorophenyl)-2-[(1H-imidazol-1-yl)methyl]-1,3-dioxolan-4-yl}methoxy)phenyl]piperazin-1-yl}ethan-1-one]","IPP screening %, Coactivator recruitment",[1],-1.0%
same,Specific binding,[2]; IPP screening at 10 uM,15.5%
same,Specific binding,[3],2.7%
same,Intrinsic Liver Clearance,[4]; [24],1620.2 L/h
same,IPP Dose Response PoD: PXR antagonist,[5],"[7.8,21.8]"
same,risk,"[6]; Dermal, Therapeutic, 2% daily, Shampoo, Exp2",0
same,risk,"[6]; Dermal, Therapeutic, 2% twice weekly, Shampoo, Exp1",0
same,risk,"[6]; Oral, 200 mg/day for fungal infection, Tablet, Exp4",1
same,risk,"[6]; Oral, Therapeutic, 1200mg/day, Tablet, Exp3",1
same,Intrinsic Liver Clearance,[7],10077 L/h
same,AC50,[8],380 nM
same,Fup,[9],0.1%
same,Reported AUC0-t,[10]; [25],18170 ng·h/mL
same,Reported cmax,[10]; [25],5160 ng/mL
same,Reported tmax,[10]; [25],1 h
same,Reported AUC0-t,[10]; [26],15730 ng·h/mL
same,Reported cmax,[10]; [26],4660 ng/mL
same,Reported tmax,[10]; [26],1 h
same,Reported AUC0-t,[10]; [27],14740 ng·h/mL
same,Reported cmax,[10]; [27],3260 ng/mL
same,Reported tmax,[10]; [27],2 h
same,Reported AUC0-t,[10]; [28],16940 ng·h/mL
same,Reported cmax,[10]; [28],3573 ng/mL
same,Reported tmax,[10]; [28],2.475 h
same,Reported AUC0-t,[10]; [29],10330 ng·h/mL
same,Reported cmax,[10]; [29],3636 ng/mL
same,Reported tmax,[10]; [29],1.28 h
same,underprediction of the L3 result at L2 (Cmax),[11],≥ 5 fold
same,pod_httr_bifrost PoD,"HepG2 cells [12]; HepG2, HTTr BIFROST PoD",0.0007156 µM
same,podl_path_minbmd PoD,"HepG2 cells [12]; HepG2, HTTr minimum pathway BMD(L)",0.9153 µM
same,"IPP screening %, Coactivator recruitment",[13],24.0%
same,pod_httr_bifrost PoD,MCF7 cells; HTTr BIFROST PoD,0.1915 µM
same,podl_path_minbmd PoD,MCF7 cells; HTTr minimum pathway BMD(L),0.1648 µM
same,pod_httr_bifrost PoD,HepaRG cells; HTTr BIFROST PoD,0.01699 µM
same,podl_path_minbmd PoD,HepaRG cells; HTTr minimum pathway BMD(L),0.1535 µM
same,"IPP screening %, Specific binding",Tubulin (r); 10 uM,-15.0%
same,PoD (NOEL),rat,6.25 mg/kg bw/day
same,Aqueous Solubility,"[14]; PBK level L2, ref [1],[4],[5],[10],[11],[17],[26]",42 µg/mL
same,Aqueous Solubility,"[14]; PBK level L3, ref [4],[5],[10],[11]",42 µg/mL
same,Specific binding,[15]; IPP screening at 10 uM,2.1%
same,"IPP screening %, Coactivator recruitment",[16]; 10 uM,1.0%
same,pod_cell_stress PoD,HepG2 cells [17],0.1454 µM
"CCN(CC)CCNC(=O)c1cc(Cl)c(N)cc1OC [Metoclopramide, 4-Amino-5-chloro-N-[2-(diethylamino)ethyl]-2-methoxybenzamide]",Specific binding,[2]; IPP screening at 100 uM,29.4%
same,Intrinsic Liver Clearance,[4]; [24],33.81 L/h
same,Intrinsic Liver Clearance,"[4]; PBK level L3, scaled from references (median where several), ref [7],[10],[19]",33.81 L/h
same,risk,"[6]; IV, High therapeutic, 30 mg/day, Exp3",1
same,risk,"[6]; Oral, High therapeutic, 30 mg/day, Tablet, Exp2",1
same,risk,"[6]; Oral, Low therapeutic, 10 mg/day, Tablet, Exp1",1
same,Specific binding,[18],-1.0%
same,Reported AUC0-t,[10]; [30],325.9 ng·h/mL
same,Reported cmax,[10]; [30],129.1 ng/mL
same,Reported tmax,[10]; [30],0.076 h
same,Reported AUC0-t,[10]; [31],968.3 ng·h/mL
same,Reported cmax,[10]; [31],201.3 ng/mL
same,Reported tmax,[10]; [31],0.042 h
same,Reported AUC0-t,[10]; [32],247.7 ng·h/mL
same,Reported cmax,[10]; [32],51.06 ng/mL
same,Reported tmax,[10]; [32],0.746 h
same,Reported AUC0-t,[10]; [33],142.87 ng·h/mL
same,Reported cmax,[10]; [33],39.948 ng/mL
same,Reported tmax,[10]; [33],0.7767 h
same,Reported AUC0-t,[10]; [34],604 ng·h/mL
same,Reported cmax,[10]; [34],55.85 ng/mL
same,Reported tmax,[10]; [34],2.01 h
same,Reported AUC0-t,[10]; [35],359.8 ng·h/mL
same,Reported cmax,[10]; [35],75.62 ng/mL
same,Reported tmax,[10]; [35],1.037 h
same,IC50,[19],46 nM
same,"next lowest PoD, HepG2 HTTr",HepG2 cells [12]; BIFROST gene level PoD,16 µM
same,Specific binding,[20],40.1%
same,"IPP screening %, Specific binding",Tubulin (r); 100 uM,0.0%
same,Specific binding,[15]; IPP screening at 100 uM,6.5%
same,"IPP screening %, Coactivator recruitment","[16]; 100 uM, * denotes assay interference (2-Amino-6-chloro-4-nitrophenol, HC Red 3)",1.0%
same,Specific binding,[21],-18.6%
CN(C)[C@@H]1C(O)=C(C(N)=O)C(=O)[C@@]2(O)C(O)=C3C(=O)c4c(O)cccc4[C@@](C)(O)[C@H]3[C@H](O)[C@@H]12 [Oxytetracycline],logP/D,[22],-1.307
same,Fup,[23],68.88%
